Reference: patent US10589078B2, “Metallic microneedles” (MICRODERMICS INC., priority 2013, dated 2020)

Format: in vitro ADME
Conditions: pig, 3 min, 174 μM
Experimental: A 500 μm tall prototype nickel microneedle 120 fabricated using the method depicted in FIGS. 1A-1G was used to inject a fluorescent chemotherapeutic drug (doxorubicin) into pigskin. A backing plate of the microneedle was bonded to a drug container that was connected to a conventional syringe via a flexible plastic capillary tube. The syringe was filled with a 174 μM solution of doxorubicin in water. The syringe was placed in a commercial syringe pump system (from KD Scientific™ of Holliston, Mass.). The microneedle 120 was applied to a shaved pigskin sample. The pump was set to push the plunger to generate a constant flow rate of 0.2 μL/minute for 3 minutes. This flow rate was selected based on a study investigating the efficiency of transdermal drug injection using silicon microneedles (U. O. Häfeli, et al., (2009), Biomed. Microdevices, Vol. 11, pp. 943-950) which found an average delivery rate of 0.2 μL/minute through each needle in an injection trial. After the injection, the skin was cleaned and then scanned using confocal microscopy.

COc1cccc2c1C(=O)c1c(O)c3c(c(O)c1C2=O)C[C@@](O)(C(=O)CO)C[C@@H]3O[C@H]1C[C@H](N)[C@H](O)[C@H](C)O1 [doxorubicin]
depth of penetration of doxorubicin into the skin: approximately 130 μm
